Assays:
[1] = test system: carnitine level in skeletal muscle tissue; assay: Carnitine levels in mouse tissues after i.p. peptide administration (commercial carnitine kit); format: in vivo, Male ICR mice
Description: (§1) Male ICR mice were injected i.p. with 250 mg/kg of the DY-65 peptide for 5 consecutive days. Half an hour after the last injection lung, heart, skeletal muscle (femural), brain, liver, kidney and blood were removed, homogenized (100 mg tissue in 200 μl distilled water), centrifuged and filtrated through 30K Microcon® filter. Carnitine analysis was carried out by a commercial kit (BIOVISION™, catalogue number K642-100). n=4 for each group.

[2] = test system: carnitine level in other tissues, including liver and kidneys; assay: Carnitine levels in other mouse tissues (lung, heart, brain, liver, kidney, blood) after i.p. peptide administration; format: in vivo; conditions: male ICR mice, 250 mg/kg i.p. for 5 consecutive days, tissues removed half an hour after last injection
Description: as §1

[3] = Toxicity observation in mice treated with the peptide; format: in vivo; conditions: male ICR mice, 250 mg/kg i.p. for 5 consecutive days

Question: With “N-acetyl-Cys-Met-Lys-Cys-NH2 (Ac-CMKC-NH2; cysteine pairing not given here) [DY-70, reference compound]” as the substance, how does the “increased carnitine levels compared to baseline levels in any of the tissues examined” value ([1]; experiment of Example 1 repeated, all tissues examined (lung, heart, skeletal muscle, brain, liver, kidney, blood)) read?
Answer: Its value is “did not result in increased carnitine levels”.

Question: For “N-acetyl-Cys-Lys-Met-Cys-NH2 (Ac-CKMC-NH2; cysteine pairing not given here) [DY-65]”, which “elevation in the level of carnitine in skeletal muscle tissue” value ([1]; healthy male ICR mice, 250 mg/kg i.p. for 5 consecutive days, femural skeletal muscle removed half an hour after last injection, p<0.05, n=4) is on record?
Answer: The value was “about 150%”.

Question: And the “elevation in carnitine level in other tissues, including liver and kidneys” value [2]?
Answer: Its value is “did not demonstrate a significant elevation in carnitine level”.

Question: And the toxicity effects [3]?
Answer: Its toxicity effects is “no toxicity effects were observed”.

Reference: US9499582B2, “Compositions and methods for increasing carnitine level in muscle tissue” (Oneday—Biotech And Pharma Ltd., priority 2012, dated 2016)
